Measurements from patent publication US11806342B2, “Diiodohydroxyquinoline for the treatment of clostridium difficile infection” (Purdue Research Foundation, priority 2019, dated 2023).
≈ marks a conversion by molar mass, not a printed value.

Experiments:
[1] = test system: C. difficile P11; experiment: MIC and MBC, broth microdilution; format: cell-based, Clostridium difficile; conditions: Clostridioides difficile, P11
Description: (§1) MIC50 and MIC90 are the minimum concentration of each agent that inhibited growth of 50% and 90% of the tested isolates, respectively. The minimum bactericidal concentration (MBC) of these drugs was tested by plating 5 μL from wells with no growth onto BHIS agar plates. The MBC was categorized as the lowest concentration that reduced bacterial growth by 99.9% MIC50 and MIC90 are the minimum concentration of each agent that inhibited the growth of 50% and 90% of the tested isolates, respectively. The minimum bactericidal concentration (MBC) of these drugs was tested by plating 5 μL from wells with no growth onto BHIS agar plates. The MBC was categorized as the lowest concentration that reduced bacterial growth by 99.9% [29-31].

[2] = test system: C. difficile P2; experiment: MIC and MBC, broth microdilution; format: cell-based, Clostridium difficile; conditions: Clostridioides difficile, P2
Description: as §1

[3] = test system: C. difficile P8; experiment: MIC and MBC, broth microdilution; format: cell-based, Clostridium difficile; conditions: Clostridioides difficile, P8
Description: as §1

[4] = test system: C. difficile NR-49290; experiment: MIC and MBC, broth microdilution; format: cell-based, Clostridium difficile; conditions: Clostridioides difficile, NR49290
Description: as §1

[5] = test system: C. difficile ATCC BAA-1870; experiment: MIC and MBC, broth microdilution; format: cell-based, Clostridium difficile; conditions: Clostridioides difficile, ATCCBAA1870
Description: as §1

[6] = test system: C. difficile ATCC 43598; experiment: MIC and MBC, broth microdilution; format: cell-based, Clostridium difficile; conditions: Clostridioides difficile, ATCC43598
Description: as §1

[7] = test system: C. difficile I1; experiment: MIC and MBC, broth microdilution; format: cell-based, Clostridium difficile; conditions: Clostridioides difficile, I1
Description: as §1

[8] = test system: C. difficile NR-49277; experiment: MIC and MBC, broth microdilution; format: cell-based, Clostridium difficile; conditions: Clostridioides difficile, NR49277
Description: as §1

[9] = test system: Bacteroides dorei HM-718; experiment: MIC against normal gut microflora, broth microdilution; format: cell-based; conditions: Phocaeicola dorei, HM718
Description: (§2) In vitro antimicrobial evaluation of diiodohydroxyquinoline against normal microflora. The broth microdilution assay was utilized to determine the MICs of DIHQ and control antibiotics against commensal organisms that compose he human gut microflora, as described elsewhere. A bacterial solution equivalent to 0.5 McFarland standard was prepared and diluted in BHIS broth (for Bifidobacterium and Bacteroides) or in MRS broth (for Lactobacillus) to achieve a bacterial concentration of about 5×10^5 CFU/mL. Then, drugs were added and serially diluted along the plates.

[10] = test system: Bacteroides dorei HM-29; experiment: as above; format: cell-based; conditions: Phocaeicola dorei, HM29
Description: as §2

[11] = test system: Bifidobacterium longum HM-847; experiment: as above; format: cell-based; conditions: Bifidobacterium longum, HM847
Description: as §2

[12] = test system: Bifidobacterium longum HM-845; experiment: as above; format: cell-based; conditions: Bifidobacterium longum, HM845
Description: as §2

[13] = test system: Bifidobacterium breve HM-1120; experiment: as above; format: cell-based; conditions: Bifidobacterium breve, HM1120
Description: as §2

[14] = test system: Bacteroides fragilis HM-711; experiment: as above; format: cell-based; conditions: Bacteroides fragilis, HM711
Description: as §2

[15] = test system: Lactobacillus reuteri HM-102; experiment: as above; format: cell-based; conditions: Limosilactobacillus reuteri, HM102
Description: as §2

[16] = test system: Bifidobacterium adolescentis HM-633; experiment: as above; format: cell-based; conditions: Bifidobacterium adolescentis, HM633
Description: as §2

[17] = test system: Bacteroides dorei HM-717; experiment: as above; format: cell-based; conditions: Phocaeicola dorei, HM717
Description: as §2

[18] = test system: Bifidobacterium breve HM-411; experiment: as above; format: cell-based; conditions: Bifidobacterium breve, HM411
Description: as §2

[19] = test system: Bifidobacterium angulatum HM-1189; experiment: as above; format: cell-based; conditions: Bifidobacterium angulatum, HM1189
Description: as §2

[20] = test system: Bacteroides fragilis HM-709; experiment: as above; format: cell-based; conditions: Bacteroides fragilis, HM709
Description: as §2

[21] = test system: Bacteroides dorei HM-719; experiment: as above; format: cell-based; conditions: Phocaeicola dorei, HM719
Description: as §2

[22] = test system: Lactobacillus casei ATCC 334; experiment: as above; format: cell-based; conditions: Lacticaseibacillus casei, ATCC334
Description: as §2

[23] = test system: Bacteroides fragilis HM-714; experiment: as above; format: cell-based; conditions: Bacteroides fragilis, HM714
Description: as §2

[24] = test system: Lactobacillus crispatus HM-371; experiment: as above; format: cell-based; conditions: Lactobacillus crispatus, HM371
Description: as §2

[25] = test system: Bacteroides fragilis HM-710; experiment: as above; format: cell-based; conditions: Bacteroides fragilis, HM710
Description: as §2

[26] = test system: C. difficile P30; experiment: Checkerboard assay, DIHQ with metronidazole or vancomycin; format: cell-based, Clostridium difficile
Description: (§3) Interactions between diiodohydroxyquinoline and the anticlostridial drugs (metronidazole and vancomycin) against Clostridium difficile clinical isolates. […] The fractional inhibitory concentration index (ΣFIC) was calculated for each interaction. Interactions where the ΣFIC index was ≤0.5 were categorized as synergistic (SYN).

[27] = test system: C. difficile P11; experiment: as above; format: cell-based, Clostridium difficile
Description: as §3

[28] = test system: C. difficile ATCC 1801; experiment: as above; format: cell-based, Clostridium difficile
Description: as §3

[29] = test system: C. difficile P19; experiment: as above; format: cell-based, Clostridium difficile
Description: as §3

SMILES: CN[C@H](CC(C)C)C(=O)N[C@H]1C(=O)N[C@@H](CC(N)=O)C(=O)N[C@H]2C(=O)N[C@H]3C(=O)N[C@H](C(=O)N[C@H](C(=O)O)c4cc(O)cc(O)c4-c4cc3ccc4O)[C@H](O)c3ccc(c(Cl)c3)Oc3cc2cc(c3O[C@@H]2O[C@H](CO)[C@@H](O)[C@H](O)[C@H]2O[C@H]2C[C@](C)(N)[C@H](O)[C@H](C)O2)Oc2ccc(cc2Cl)[C@H]1O [Vancomycin, vancomycin]
- MBC [1]: 1 µg/mL (≈ 0.69 µM)
- MIC [1]: 1 µg/mL (≈ 0.69 µM)
- MBC [2]: 1 µg/mL (≈ 0.69 µM)
- MIC [2]: 1 µg/mL (≈ 0.69 µM)
- MBC [3]: 1 µg/mL (≈ 0.69 µM)
- MIC [3]: 1 µg/mL (≈ 0.69 µM)
- MBC [4]: 1 µg/mL (≈ 0.69 µM)
- MIC [4]: 0.5 µg/mL (≈ 0.345 µM)
- MBC [5]: 1 µg/mL (≈ 0.69 µM)
- MIC [5]: 1 µg/mL (≈ 0.69 µM)
- MBC [6]: 1 µg/mL (≈ 0.69 µM)
- MIC [6]: 1 µg/mL (≈ 0.69 µM)
- MBC [7]: 1 µg/mL (≈ 0.69 µM)
- MIC [7]: 1 µg/mL (≈ 0.69 µM)
- MBC [8]: 1 µg/mL (≈ 0.69 µM)
- MIC [8]: 1 µg/mL (≈ 0.69 µM)
- MIC [9]: 128 µg/mL (≈ 88.3 µM)
- MIC [10]: 64 µg/mL (≈ 44.2 µM)
- MIC [11]: ≤ 1 µg/mL
- MIC [12]: ≤ 1 µg/mL
- MIC [13]: ≤ 1 µg/mL
- MIC [14]: 128 µg/mL (≈ 88.3 µM)
- MIC [15]: > 128 µg/mL
- MIC [16]: ≤ 1 µg/mL
- MIC [17]: 128 µg/mL (≈ 88.3 µM)
- MIC [18]: ≤ 1 µg/mL
- MIC [19]: ≤ 1 µg/mL
- MIC [20]: 64 µg/mL (≈ 44.2 µM)
- MIC [21]: 64 µg/mL (≈ 44.2 µM)
- MIC [22]: > 128 µg/mL
- MIC [23]: 128 µg/mL (≈ 88.3 µM)
- MIC [24]: 4 µg/mL (≈ 2.76 µM)
- MIC [25]: 64 µg/mL (≈ 44.2 µM)
- MIC of vancomycin combined with DIHQ ([26]; C. difficile P30): 0.125 µg/mL
- MIC ([26]; Clostridioides difficile, P30, read-out: MIC alone): 1 µg/mL
- MIC of vancomycin combined with DIHQ ([27]; C. difficile P11): 0.125 µg/mL
- MIC ([27]; Clostridioides difficile, P11, read-out: MIC alone): 1 µg/mL
- MIC of vancomycin combined with DIHQ ([28]; C. difficile ATCC 1801): 0.06 µg/mL
- MIC ([28]; Clostridioides difficile, ATCC1801, read-out: MIC alone): 0.5 µg/mL
- MIC of vancomycin combined with DIHQ ([29]; C. difficile P19): 0.125 µg/mL
- MIC ([29]; Clostridioides difficile, P19, read-out: MIC alone): 1 µg/mL
